Reference: US20110319491A1, “ANHYDROUS DEPIGMENTING COMPOSITIONS COMPRISING, WITHIN THE FATTY PHASE THEREOF, A SOLUBILIZED PHENOLIC COMPOUND AND A RETINOID” (GALDERMA RESEARCH & DEVELOPMENT, priority 2009, published 2011)
Like-named read-outs stand apart in the source and are kept apart here.

What was measured:
[1] = Chemical stability of the formulations (HPLC assay of the active agents); format: physicochemical; details: in composition of Example 2
Method: The chemical stability is measured by assaying the active agents by external calibration in HPLC and the results are expressed as a % of […] relative to the theoretical value.

[2] = cited from earlier work
[3] = Stability of hydroquinone in solvent oils and lipophilic surfactants (HPLC assay, colour)
[4] = in Cremophor EL, 1 month, 40° C.
[5] = in Cremophor EL, 3 months, 40° C.
[6] = in Crodamol DA, 1 month, 40° C.
[7] = in Crodamol DA, 3 months, 40° C.
[8] = in Ethanol/water (20/80), 1 month, 40° C.
[9] = in Ethanol/water (20/80), 1 month, RT
[10] = in Ethanol/water (20/80), 3 months, 40° C.
[11] = in Ethanol/water (20/80), 3 months, RT
[12] = in Propylene glycol, 1 month, 40° C.
[13] = in Propylene glycol, 1 month, RT
[14] = in Propylene glycol, 3 months, 40° C.
[15] = in Propylene glycol, 3 months, RT

Chemical stability: hydroquinone assay, % relative to the theoretical value ([1]; 40° C., T + 1 M): 97.6% | Chemical stability: hydroquinone assay, % relative to the theoretical value ([1]; 40° C., T + 2 M): 100.8% | Chemical stability: hydroquinone assay, % relative to the theoretical value ([1]; 40° C., T + 3 M): 99.2% | Chemical stability: hydroquinone assay, % relative to the theoretical value ([1]; 40° C., T + 6 M): 97.2% | Chemical stability: hydroquinone assay, % relative to the theoretical value ([1]; RT, T + 1 M): 98.9% | Chemical stability: hydroquinone assay, % relative to the theoretical value ([1]; RT, T + 2 M): 101.8% | Chemical stability: hydroquinone assay, % relative to the theoretical value ([1]; RT, T + 3 M): 98.8% | Chemical stability: hydroquinone assay, % relative to the theoretical value ([1]; RT, T + 6 M): 100.6% | Max. solubility (w/w) (in Arlamol E): 11.9 w/w | Max. solubility (w/w) (in Caprylic capric triglycerides): 1.7 w/w | Max. solubility (w/w) (in Castor oil): 6.5 w/w | Max. solubility (w/w) (in Cremophor EL): 27.9 w/w | Solubility of hydroquinone (in words) (in Cremophor EL): high solubility | Max. solubility (w/w) (in Crodamol DA): 10.7 w/w | Max. solubility (w/w) (in Ethanol/water (20/80)): 17 w/w | Max. solubility (w/w) (in Glycerol): 15.6 w/w | Max. solubility (w/w) (in Labrasol): 28.9 w/w | Max. solubility (w/w) (in Lauroglycol): 5.5 w/w | Max. solubility (w/w) (in PEG 400): 19.8 w/w | Max. solubility (w/w) (in Propylene glycol): 15.6 w/w | % (HPLC assay, T0 = 100%) ([3]; in Arlamol E, 1 month, 40° C.): 95.5% | Colour ([3]; in Arlamol E, 1 month, 40° C.): Colourless | % (HPLC assay, T0 = 100%) ([3]; in Arlamol E, 1 month, RT): 95.9% | Colour ([3]; in Arlamol E, 1 month, RT): Colourless | % (HPLC assay, T0 = 100%) ([3]; in Arlamol E, 3 months, 40° C.): 96.0% | Colour ([3]; in Arlamol E, 3 months, 40° C.): Colourless | % (HPLC assay, T0 = 100%) ([3]; in Arlamol E, 3 months, RT): 95.9% | Colour ([3]; in Arlamol E, 3 months, RT): Colourless | % (HPLC assay, T0 = 100%) [3, 4]: 87.1% | Colour [3, 4]: Brown | % (HPLC assay, T0 = 100%) ([3]; in Cremophor EL, 1 month, RT): 91.4% | Colour ([3]; in Cremophor EL, 1 month, RT): Orange | % (HPLC assay, T0 = 100%) [3, 5]: 85.1% | Colour [3, 5]: Brown++ | % (HPLC assay, T0 = 100%) ([3]; in Cremophor EL, 3 months, RT): 87% | Colour ([3]; in Cremophor EL, 3 months, RT): Brown+ | Macroscopic stability of hydroquinone (in words) ([3]; in Cremophor EL, browning that becomes pronounced over time and with temperature): macroscopic instability | Chemical and physical stability of hydroquinone (in words) ([3]; in Crodamol DA, Arlamol E and Labrasol): good chemical and physical stability | % (HPLC assay, T0 = 100%) [3, 6]: 95.9% | Colour [3, 6]: Colourless | % (HPLC assay, T0 = 100%) ([3]; in Crodamol DA, 1 month, RT): 96.5% | Colour ([3]; in Crodamol DA, 1 month, RT): Colourless | % (HPLC assay, T0 = 100%) [3, 7]: 97.4% | Colour [3, 7]: Colourless | % (HPLC assay, T0 = 100%) ([3]; in Crodamol DA, 3 months, RT): 97.6% | Colour ([3]; in Crodamol DA, 3 months, RT): Colourless | % (HPLC assay, T0 = 100%) [3, 8]: 91.7% | Colour [3, 8]: Dark pink | % (HPLC assay, T0 = 100%) [3, 9]: 94.4% | Colour [3, 9]: Orange | % (HPLC assay, T0 = 100%) [3, 10]: 89.4% | Colour [3, 10]: Brown | % (HPLC assay, T0 = 100%) [3, 11]: 93.9% | Colour [3, 11]: Orange | % (HPLC assay, T0 = 100%) ([3]; in Glycerol, 1 month, 40° C.): 93.5% | Colour ([3]; in Glycerol, 1 month, 40° C.): Dark yellow | % (HPLC assay, T0 = 100%) ([3]; in Glycerol, 1 month, RT): 95.0% | Colour ([3]; in Glycerol, 1 month, RT): Yellow | % (HPLC assay, T0 = 100%) ([3]; in Glycerol, 3 months, 40° C.): 93.3% | Colour ([3]; in Glycerol, 3 months, 40° C.): Orange | % (HPLC assay, T0 = 100%) ([3]; in Glycerol, 3 months, RT): 93.0% | Colour ([3]; in Glycerol, 3 months, RT): Pink | % (HPLC assay, T0 = 100%) ([3]; in Labrasol, 1 month, 40° C.): 95.2% | Colour ([3]; in Labrasol, 1 month, 40° C.): Colourless | % (HPLC assay, T0 = 100%) ([3]; in Labrasol, 1 month, RT): 95.4% | Colour ([3]; in Labrasol, 1 month, RT): Colourless | % (HPLC assay, T0 = 100%) ([3]; in Labrasol, 3 months, 40° C.): 95.1% | Colour ([3]; in Labrasol, 3 months, 40° C.): Colourless | % (HPLC assay, T0 = 100%) ([3]; in Labrasol, 3 months, RT): 94.6% | Colour ([3]; in Labrasol, 3 months, RT): Colourless | % (HPLC assay, T0 = 100%) ([3]; in Miglyol, 1 month, 40° C.): 95% | Colour ([3]; in Miglyol, 1 month, 40° C.): Colourless | % (HPLC assay, T0 = 100%) ([3]; in Miglyol, 1 month, RT): 94.2% | Colour ([3]; in Miglyol, 1 month, RT): Colourless | % (HPLC assay, T0 = 100%) ([3]; in Miglyol, 3 months, 40° C.): 95% | Colour ([3]; in Miglyol, 3 months, 40° C.): Colourless | % (HPLC assay, T0 = 100%) ([3]; in Miglyol, 3 months, RT): 93.1% | Colour ([3]; in Miglyol, 3 months, RT): Colourless | % (HPLC assay, T0 = 100%) ([3]; in PEG 400, 1 month, 40° C.): 91.4% | Colour ([3]; in PEG 400, 1 month, 40° C.): Orange | % (HPLC assay, T0 = 100%) ([3]; in PEG 400, 1 month, RT): 93.4% | Colour ([3]; in PEG 400, 1 month, RT): Pink | % (HPLC assay, T0 = 100%) ([3]; in PEG 400, 3 months, 40° C.): 91.8% | Colour ([3]; in PEG 400, 3 months, 40° C.): Brown | % (HPLC assay, T0 = 100%) ([3]; in PEG 400, 3 months, RT): 89.0% | Colour ([3]; in PEG 400, 3 months, RT): Brown | % (HPLC assay, T0 = 100%) [3, 12]: 91.8% | Colour [3, 12]: Yellow | % (HPLC assay, T0 = 100%) [3, 13]: 97.0% | Colour [3, 13]: Colourless | % (HPLC assay, T0 = 100%) [3, 14]: 88.8% | Colour [3, 14]: Dark yellow | % (HPLC assay, T0 = 100%) [3, 15]: 94.2% | Colour [3, 15]: Yellow | Colour stability of hydroquinone (in words) ([3]; in solvents of the prior art such as glycols, RT and 40° C., absence of antioxidants): colouration is observed
SMILES: Oc1ccc(O)cc1 [Hydroquinone, hydroquinone]
Incidence of irritation ([2]; 2% hydroquinone concentration): virtually nonexistent | Incidence of irritation ([2]; 10% hydroquinone concentration): relatively high | Incidence of irritation ([2]; preparations with a 5% dose of hydroquinone): reduces greatly
